Data: EP1140909B1, “NOVEL INHIBITORS OF FARNESYL-PROTEIN TRANSFERASE” (Schering Corporation, priority 1998, dated 2000)
Values joined by “and” are separate entries in the source; they are usually repeats but may differ in a detail not shown here. Equal entries are not always repeated.

target: T1, partially purified rat brain farnesyl protein transferase (FPT) (Rattus norvegicus, UniProt Q02293+Q04631); assay: FPT IC50 in vitro enzyme assay (inhibition of Ras-CVLS farnesylation); format: biochemical; conditions: inhibition of Ras-CVLS famesylation; methods of WO/10515 or WO 95/10516
T1 construct: partially purified rat brain farnesyl protein transferase (FPT); from tissue; host or cells: rat brain
T1 sequence (Q02293 whole entry, one chain of several): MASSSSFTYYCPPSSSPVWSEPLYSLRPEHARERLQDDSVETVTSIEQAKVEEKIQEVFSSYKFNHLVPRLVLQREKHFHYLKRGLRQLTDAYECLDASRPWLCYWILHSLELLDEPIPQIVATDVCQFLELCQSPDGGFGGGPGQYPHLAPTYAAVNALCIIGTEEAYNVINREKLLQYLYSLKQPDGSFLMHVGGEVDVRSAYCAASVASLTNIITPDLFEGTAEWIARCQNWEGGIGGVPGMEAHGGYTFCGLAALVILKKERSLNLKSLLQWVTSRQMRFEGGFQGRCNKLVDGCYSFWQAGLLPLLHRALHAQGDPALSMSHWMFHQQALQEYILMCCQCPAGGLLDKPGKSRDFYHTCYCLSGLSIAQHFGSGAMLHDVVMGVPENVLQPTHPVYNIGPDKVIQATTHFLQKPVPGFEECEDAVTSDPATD
Experimental: 1. In vitro enzyme assays: FPT IC50 (inhibition of farnesyl protein transferase, in vitro enzyme assay) are determined by the methods disclosed in […] or WO 95/10516.

SMILES	IC50
CC(=O)Nc1ccc(CN2CCN(C(=O)NC3CCCCC3)[C@@H](C(=O)NCCc3cncn3Cc3ccc(C#N)cc3)C2)cc1 [Example 20]	0.18 to 1.5 nM
N#Cc1ccc(Cn2cncc2CCNC(=O)[C@H]2CN(Cc3ccccc3Cl)CCN2C(=O)NC2CCCCC2)cc1 [Example 28]	0.18 to 1.5 nM
CC(c1ccccc1)N1CCN(C(=O)NC2CCCCC2)[C@@H](C(=O)NCCc2cncn2Cc2ccc(C#N)cc2)C1 (stereo partly drawn) [Example 1, N2-[2-[1-[(4-cyanophenyl)methyl]-1H-imidazol-5-yl]ethyl]-N1-cyclohexyl-4-(1-phenylethyl)-1,2(R)-piperazinedicarboxamide]	0.18 to 21 nM
N#Cc1ccc(Cn2cncc2CCNC(=O)C2CN(Cc3ccccc3)CCN2C(=O)CC2CCN(C(N)=O)CC2)cc1 (stereo not shown) [Example 28Q]	0.18 to 21 nM
N#Cc1ccc(Cn2cncc2CCNC(=O)C2CN(Cc3ccccc3)CCN2C(=O)c2ccccc2)cc1 (stereo not shown) [Example 28G]	0.18 to 21 nM
CC(C)(C)NC(=O)N1CCN(Cc2ccccc2)CC1C(=O)N(CCCn1ccnc1)Cc1ccccc1 (stereo not shown) [Example 28T]	0.18 to 21 nM
CCCC(=O)N1CCN(Cc2ccccc2)CC1C(=O)NCCc1cncn1Cc1ccc(C#N)cc1 (stereo not shown) [Example 28F]	0.18 to 21 nM
N#Cc1ccc(Cn2cncc2CCNC(=O)[C@H]2CN(Cc3ccncc3)CCN2C(=O)NC2CCCCC2)cc1 [Example 5]	0.18 to 21 nM
N#Cc1ccc(Cn2cncc2CCNC(=O)[C@H]2CN(Cc3cccc(Cl)c3)CCN2C(=O)NC2CCCCC2)cc1 [Example 25]	0.18 to 1.5 nM

Further lines, results first:

IC50	SMILES
0.18 to 1.5 nM	COc1ccccc1CN1CCN(C(=O)NC2CCCCC2)[C@@H](C(=O)NCCc2cncn2Cc2ccc(C#N)cc2)C1 [Example 27]
0.18 to 21 nM	N#Cc1ccc(Cn2cncc2CCNC(=O)C2CN(Cc3ccccc3)CCN2S(=O)(=O)Cc2ccccc2)cc1 (stereo not shown) [Example 28M]
0.18 to 21 nM	O=C(C1CN(Cc2ccccc2)CCN1C(=O)NC1CCCCC1)N(CCCn1ccnc1)Cc1ccccc1 (stereo not shown) [Example 28S]
0.18 to 1.5 nM	COc1cccc(CN2CCN(C(=O)NC3CCCCC3)[C@@H](C(=O)NCCc3cncn3Cc3ccc(C#N)cc3)C2)c1 [Example 26]
0.18 to 21 nM	N#Cc1ccc(Cn2cncc2CCNC(=O)C2CN(Cc3ccccc3)CCN2C(=O)Cc2ccccc2)cc1 (stereo not shown) [Example 28I]
0.18 to 21 nM and 0.18 to 1.5 nM	CC(C)(C)NC(=O)N1CCN(Cc2ccccc2)CC1C(=O)NCCc1cncn1Cc1ccc(C#N)cc1 (stereo not shown) [Example 28O]
0.18 to 21 nM	N#Cc1ccc(Cn2cncc2CCNC(=O)[C@H]2CN(CC3CC4C=CC3C4)CCN2C(=O)NC2CCCCC2)cc1 (stereo partly shown) [Example 6]
